# According to patent US20090012103A1, “SUBSTITUTED HETEROCYCLIC COMPOUNDS” (priority 2007, published 2009):
# Biological target: wild-type human cardiac sodium channel, hNav1.5 (Homo sapiens, UniProt Q14524)
# Assay: Late INa screening assay (late sodium current, PatchXpress whole cell patch clamp)
# Assay type: cell-based
# Settings: compound at 10 μM; read-out: Late INa % blk
# Sequence of wild-type human cardiac sodium channel, hNav1.5 (Q14524 whole entry): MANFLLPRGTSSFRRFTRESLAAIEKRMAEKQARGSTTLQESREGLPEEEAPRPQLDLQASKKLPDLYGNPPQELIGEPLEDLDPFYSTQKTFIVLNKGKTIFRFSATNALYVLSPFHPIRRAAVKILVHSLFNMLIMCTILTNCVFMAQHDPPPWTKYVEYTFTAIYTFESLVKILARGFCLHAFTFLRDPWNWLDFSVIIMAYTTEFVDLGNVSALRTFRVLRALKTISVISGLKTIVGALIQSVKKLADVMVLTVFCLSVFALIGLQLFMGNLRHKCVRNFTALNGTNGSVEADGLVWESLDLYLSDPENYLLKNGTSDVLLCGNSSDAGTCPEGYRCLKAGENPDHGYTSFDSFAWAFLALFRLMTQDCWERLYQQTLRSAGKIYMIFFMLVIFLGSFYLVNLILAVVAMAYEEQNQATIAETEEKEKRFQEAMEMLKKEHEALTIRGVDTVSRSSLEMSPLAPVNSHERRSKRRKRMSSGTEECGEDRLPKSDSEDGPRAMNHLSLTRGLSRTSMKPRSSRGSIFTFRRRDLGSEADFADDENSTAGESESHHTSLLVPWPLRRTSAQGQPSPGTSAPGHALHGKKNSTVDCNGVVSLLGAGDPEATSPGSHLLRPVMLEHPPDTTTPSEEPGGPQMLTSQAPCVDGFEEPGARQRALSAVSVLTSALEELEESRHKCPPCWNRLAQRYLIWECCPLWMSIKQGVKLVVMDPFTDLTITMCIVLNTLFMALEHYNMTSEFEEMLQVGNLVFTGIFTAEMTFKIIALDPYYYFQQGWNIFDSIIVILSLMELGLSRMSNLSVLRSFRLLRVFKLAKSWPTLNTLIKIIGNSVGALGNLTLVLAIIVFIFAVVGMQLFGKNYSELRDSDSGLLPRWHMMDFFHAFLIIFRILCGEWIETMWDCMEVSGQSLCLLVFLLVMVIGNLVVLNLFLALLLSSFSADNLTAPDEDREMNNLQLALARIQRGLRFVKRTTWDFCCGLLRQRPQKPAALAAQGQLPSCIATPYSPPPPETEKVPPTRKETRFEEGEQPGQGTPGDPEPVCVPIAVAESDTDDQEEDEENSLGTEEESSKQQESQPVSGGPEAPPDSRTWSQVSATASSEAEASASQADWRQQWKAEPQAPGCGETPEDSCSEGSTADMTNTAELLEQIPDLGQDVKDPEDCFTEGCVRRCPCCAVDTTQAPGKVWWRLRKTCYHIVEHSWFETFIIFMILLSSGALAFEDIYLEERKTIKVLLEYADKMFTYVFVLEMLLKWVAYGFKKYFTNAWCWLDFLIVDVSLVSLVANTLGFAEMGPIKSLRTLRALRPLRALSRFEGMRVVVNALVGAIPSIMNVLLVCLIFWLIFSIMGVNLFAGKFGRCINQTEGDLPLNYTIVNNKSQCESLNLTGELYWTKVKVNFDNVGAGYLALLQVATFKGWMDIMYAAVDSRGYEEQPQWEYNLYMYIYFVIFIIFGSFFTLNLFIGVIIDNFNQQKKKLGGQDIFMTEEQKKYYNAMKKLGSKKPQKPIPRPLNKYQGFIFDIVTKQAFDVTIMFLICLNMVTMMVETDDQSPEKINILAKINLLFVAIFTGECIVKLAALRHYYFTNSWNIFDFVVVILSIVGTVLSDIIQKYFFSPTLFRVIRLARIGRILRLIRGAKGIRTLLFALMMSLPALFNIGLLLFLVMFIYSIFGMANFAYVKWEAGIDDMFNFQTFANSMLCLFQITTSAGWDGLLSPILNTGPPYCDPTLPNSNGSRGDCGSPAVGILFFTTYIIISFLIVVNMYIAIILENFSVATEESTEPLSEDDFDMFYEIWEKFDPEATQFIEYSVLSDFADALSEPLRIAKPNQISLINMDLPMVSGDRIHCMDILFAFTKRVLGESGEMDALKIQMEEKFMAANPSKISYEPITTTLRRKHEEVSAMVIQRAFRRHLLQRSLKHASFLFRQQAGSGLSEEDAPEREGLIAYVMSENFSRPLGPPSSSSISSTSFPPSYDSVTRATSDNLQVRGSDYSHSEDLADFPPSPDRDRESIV
row,Compound,inhibition at 10 µM
1,"CCOC(=O)C1=C(C)NC(C)=C(C(=O)OCC)C1c1cccc(-c2ccccc2)c1 [PT-439, diethyl 4-(biphenyl-3-yl)-2,6-dimethyl-1,4-dihydropyridine-3,5-dicarboxylate]",56.1%
2,"CCOC(=O)C1=C(C)Nc2[nH]nc(C)c2C1c1cccs1 (centres unmarked) [PT-443, ethyl 3,6-dimethyl-4-(thiophen-2-yl)-4,7-dihydro-1H-pyrazolo[3,4-b]pyridine-5-carboxylate]",20%
3,"CCOC(=O)C1=C(C)N(Cc2nnn[nH]2)c2nnnn2C1c1cccc2ccccc12 (centres unmarked) [PT-444, ethyl 4-((1H-tetrazol-5-yl)methyl)-5-methyl-7-(naphthalen-1-yl)-4,7-dihydrotetrazolo[1,5-a]pyrimidine-6-carboxylate]",9.1%
4,"CCOC(=O)C1=C(C)Nc2[nH]ncc2C1c1c(OC)cccc1OC (centres unmarked) [PT-446, ethyl 4-(2,6-dimethoxyphenyl)-6-methyl-4,7-dihydro-1H-pyrazolo[3,4-b]pyridine-5-carboxylate]",7%
5,"CCOC(=O)C1=C(C)Nc2[nH]ncc2C1c1c(Br)sc2ccccc12 (centres unmarked) [PT-447, ethyl 4-(2-bromobenzo[b]thiophen-3-yl)-6-methyl-4,7-dihydro-1H-pyrazolo[3,4-b]pyridine-5-carboxylate]",77.4%
6,"CCOC(=O)CN1C(C)=C(C(=O)OCC)C(c2cccc3ccccc23)n2nnnc21 (centres unmarked) [PT-449, ethyl 4-(2-ethoxy-2-oxoethyl)-5-methyl-7-(naphthalen-1-yl)-4,7-dihydrotetrazolo[1,5-a]pyrimidine-6-carboxylate]",47.6%
7,"CCOC(=O)c1c(C)nc2[nH]ncc2c1-c1ccccc1-c1cccc(C(C)=O)c1 [PT-450, ethyl 4-(3′-acetylbiphenyl-2-yl)-6-methyl-1H-pyrazolo[3,4-b]pyridine-5-carboxylate]",7.3%
8,"CCOC(=O)C1=C(C)Nc2[nH]ncc2C1c1ccccc1-c1cccc(C(C)=O)c1 (centres unmarked) [PT-451, ethyl 4-(3′-acetylbiphenyl-2-yl)-6-methyl-4,7-dihydro-1H-pyrazolo[3,4-b]pyridine-5-carboxylate]",18.4%
9,"CCOC(=O)c1ccc(N2CCN(C(=O)C3=C(C)NC4=C(C(=O)CCC4)C3c3cccc4ccccc34)CC2)cc1 (centres unmarked) [PT-452, ethyl 4-(4-(2-methyl-4-(naphthalen-1-yl)-5-oxo-1,4,5,6,7,8-hexahydroquinoline-3-carbonyl)piperazin-1-yl)benzoate]",5.9%
10,"CCOC(=O)C1=C(C)Nc2[nH]ncc2C1c1ccc(N(C)C)c2ccccc12 (centres unmarked) [PT-454, ethyl 4-(4-(dimethylamino)naphthalen-1-yl)-6-methyl-4,7-dihydro-1H-pyrazolo[3,4-b]pyridine-5-carboxylate]",30.2%
11,"CCOC(=O)C1=C(C)NC2=C(C(=O)CCC2)C1c1ccccc1-c1ccc(C(N)=O)cc1 (centres unmarked) [PT-455, ethyl 4-(4′-carbamoylbiphenyl-2-yl)-2-methyl-5-oxo-1,4,5,6,7,8-hexahydroquinoline-3-carboxylate]",9%
12,"CCOC(=O)C1=C(C)N(CC#N)c2nnnn2C1c1cccc2ccccc12 (centres unmarked) [PT-456, ethyl 4-(cyanomethyl)-5-methyl-7-(naphthalen-1-yl)-4,7-dihydrotetrazolo[1,5-a]pyrimidine-6-carboxylate]",2.7%
13,"CCOC(=O)C1=C(C)Nc2nnnn2C1c1ccccc1Oc1ccc(S(N)(=O)=O)cc1 (centres unmarked) [PT-458, ethyl 5-methyl-7-(2-(4-sulfamoylphenoxy)phenyl)-4,7-dihydrotetrazolo[1,5-a]pyrimidine-6-carboxylate]",19%
14,"CCOC(=O)C1=C(C)Nc2nnnn2C1c1ccccc1-c1cccnc1 (centres unmarked) [PT-459, ethyl 5-methyl-7-(2-(pyridin-3-yl)phenyl)-4,7-dihydrotetrazolo[1,5-a]pyrimidine-6-carboxylate]",10.3%
15,"CCOC(=O)C1=C(C)Nc2nnnn2C1c1ccccc1-c1ccncc1 (centres unmarked) [PT-460, ethyl 5-methyl-7-(2-(pyridin-4-yl)phenyl)-4,7-dihydrotetrazolo[1,5-a]pyrimidine-6-carboxylate]",22.1%
16,"CCOC(=O)C1=C(C)Nc2nnnn2C1c1ccccc1-c1cncnc1 (centres unmarked) [PT-461, ethyl 5-methyl-7-(2-(pyrimidin-5-yl)phenyl)-4,7-dihydrotetrazolo[1,5-a]pyrimidine-6-carboxylate]",6.2%
17,"CCOC(=O)C1=C(C)Nc2nnnn2C1c1ccccc1-c1cccs1 (centres unmarked) [PT-462, ethyl 5-methyl-7-(2-(thiophen-2-yl)phenyl)-4,7-dihydrotetrazolo[1,5-a]pyrimidine-6-carboxylate]",63%
18,"CCOC(=O)C1=C(C)Nc2ccnn2C1c1cccc(Oc2ccccc2)c1 (centres unmarked) [PT-463, ethyl 5-methyl-7-(3-phenoxyphenyl)-4,7-dihydropyrazolo[1,5-a]pyrimidine-6-carboxylate]",42.3%
19,"CCOC(=O)C1=C(C(C)=O)C(c2cccc3ccccc23)n2nnnc2N1 (centres unmarked) [PT-465, ethyl 6-acetyl-7-(naphthalen-1-yl)-4,7-dihydrotetrazolo[1,5-a]pyrimidine-5-carboxylate]",10.5%

row,Compound,inhibition at 10 µM
1,"CCOC(=O)C1=C(C)Nc2[nH]ncc2C1c1cccc(Oc2ccccc2)c1 (centres unmarked) [PT-470, ethyl 6-methyl-4-(3-phenoxyphenyl)-4,7-dihydro-1H-pyrazolo[3,4-b]pyridine-5-carboxylate]",26%
2,"CCOC(=O)C1=C(C)Nc2[nH]ncc2C1c1ccccc1-c1ccc(NS(C)(=O)=O)cc1 (centres unmarked) [PT-471, ethyl 6-methyl-4-(4′-(methylsulfonamido)biphenyl-2-yl)-4,7-dihydro-1H-pyrazolo[3,4-b]pyridine-5-carboxylate]",30%
3,"CCOC(=O)c1c(C)nc2[nH]ncc2c1-c1cccc2ccccc12 [PT-472, ethyl 6-methyl-4-(naphthalen-1-yl)-1H-pyrazolo[3,4-b]pyridine-5-carboxylate]",22.6%
4,"CCOC(=O)C1=C(C)Nc2[nH]ncc2C1c1cccs1 (centres unmarked) [PT-473, ethyl 6-methyl-4-(thiophen-2-yl)-4,7-dihydro-1H-pyrazolo[3,4-b]pyridine-5-carboxylate]",9.4%
5,"CCOC(=O)c1c(C)nc2[nH]ncc2c1-c1ccccc1 [PT-474, ethyl 6-methyl-4-phenyl-1H-pyrazolo[3,4-b]pyridine-5-carboxylate]",22%
6,"CCOC(=O)C1=C(C)Nc2nnnn2C1c1ccccc1-n1cncn1 (centres unmarked) [PT-475, ethyl 7-(2-(1H-1,2,4-triazol-1-yl)phenyl)-5-methyl-4,7-dihydrotetrazolo[1,5-a]pyrimidine-6-carboxylate]",5.5%
7,"CCOC(=O)C1=C(C)Nc2ccnn2C1c1ccccc1OCCN(C)C (centres unmarked) [PT-478, ethyl 7-(2-(2-(dimethylamino)ethoxy)phenyl)-5-methyl-4,7-dihydropyrazolo[1,5-a]pyrimidine-6-carboxylate]",34.3%
8,"CCOC(=O)C1=C(C)Nc2nnnn2C1c1ccccc1Oc1cccc(C(=O)OCC)c1 (centres unmarked) [PT-479, ethyl 7-(2-(3-(ethoxycarbonyl)phenoxy)phenyl)-5-methyl-4,7-dihydrotetrazolo[1,5-a]pyrimidine-6-carboxylate]",35.7%
9,"CCOC(=O)C1=C(C)Nc2nnnn2C1c1ccccc1OCc1cccc(C(=O)OC)c1 (centres unmarked) [PT-480, ethyl 7-(2-(3-(methoxycarbonyl)benzyloxy)phenyl)-5-methyl-4,7-dihydrotetrazolo[1,5-a]pyrimidine-6-carboxylate]",5.4%
10,"CCOC(=O)C1=C(C)Nc2nnnn2C1c1ccccc1Oc1ccc(-c2nnn[nH]2)cc1 (centres unmarked) [PT-481, ethyl 7-(2-(4-(1H-tetrazol-5-yl)phenoxy)phenyl)-5-methyl-4,7-dihydrotetrazolo[1,5-a]pyrimidine-6-carboxylate]",18%
11,"CCOC(=O)C1=C(C)Nc2nnnn2C1c1ccccc1OCc1ccc(C(=O)OCC)cc1 (centres unmarked) [PT-482, ethyl 7-(2-(4-(ethoxycarbonyl)benzyloxy)phenyl)-5-methyl-4,7-dihydrotetrazolo[1,5-a]pyrimidine-6-carboxylate]",3.2%
12,"CCOC(=O)C1=C(C)Nc2nnnn2C1c1ccccc1Oc1ccc(C(=O)OCC)cc1 (centres unmarked) [PT-483, ethyl 7-(2-(4-(ethoxycarbonyl)phenoxy)phenyl)-5-methyl-4,7-dihydrotetrazolo[1,5-a]pyrimidine-6-carboxylate]",31.8%
13,"CCOC(=O)C1=C(C)Nc2nnnn2C1c1ccccc1N1CCC(C(=O)OCC)CC1 (centres unmarked) [PT-484, ethyl 7-(2-(4-(ethoxycarbonyl)piperidin-1-yl)phenyl)-5-methyl-4,7-dihydrotetrazolo[1,5-a]pyrimidine-6-carboxylate]",36.1%
14,"CCOC(=O)C1=C(C)Nc2nnnn2C1c1ccccc1Oc1ccc(C#N)cc1 (centres unmarked) [PT-485, ethyl 7-(2-(4-cyanophenoxy)phenyl)-5-methyl-4,7-dihydrotetrazolo[1,5-a]pyrimidine-6-carboxylate]",5.2%
15,"CCOC(=O)C1=C(C)Nc2nnnn2C1c1c(Cl)cccc1Cl (centres unmarked) [PT-486, ethyl 7-(2,6-dichlorophenyl)-5-methyl-4,7-dihydrotetrazolo[1,5-a]pyrimidine-6-carboxylate]",30.8%
16,"CCOC(=O)C1=C(C)Nc2nnnn2C1c1c(C)cccc1C (centres unmarked) [PT-487, ethyl 7-(2,6-dimethylphenyl)-5-methyl-4,7-dihydrotetrazolo[1,5-a]pyrimidine-6-carboxylate]",20.9%
17,"CCOC(=O)C1=C(C)Nc2ccnn2C1c1c(Br)sc2ccccc12 (centres unmarked) [PT-488, ethyl 7-(2-bromobenzo[b]thiophen-3-yl)-5-methyl-4,7-dihydropyrazolo[1,5-a]pyrimidine-6-carboxylate]",82.3%
18,"CCOC(=O)C1=C(C)N(CC(=O)Nc2c(C)cccc2C)c2nnnn2C1c1ccccc1Br (centres unmarked) [PT-490, ethyl 7-(2-bromophenyl)-4-(2-(2,6-dimethylphenylamino)-2-oxoethyl)-5-methyl-4,7-dihydrotetrazolo[1,5-a]pyrimidine-6-carboxylate]",7.3%
19,"CCOC(=O)C1=C(C)Nc2ccnn2C1c1ccc(OC)cc1C#N (centres unmarked) [PT-491, ethyl 7-(2-cyano-4-methoxyphenyl)-5-methyl-4,7-dihydropyrazolo[1,5-a]pyrimidine-6-carboxylate]",-0.9%
